This experiment concerns 454973-116-R2-J3-PDC spheroids, viability, % test/control. The experiment is described as follows: Anticancer human tumor 454973-116-R2-J3-PDC patient-derived pancreatic carcinoma cell line growth inhibition [GQUAD]. The settings on record: spheroids with HUVEC and MSC; for viability, T/C: stronger effect = lower value. Summed up:
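Tumor cells were grown as complex spheroids with HUVEC endothelial cells and mesenchymal stem cells as stroma. G-quadruplex stabilizers were combined with targeted agents over half-log dilutions from near the clinical Cmax, or from 10 microM.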

Setting [1] is: curve of first compound, second compound 0.0316 µM.
Setting [2] is: curve of first compound, second compound 0.1 µM.
[3] abbreviates: curve of first compound, second compound 0.316 µM.
[4] abbreviates: curve of first compound, second compound 1 µM.
Where [5] appears, read: curve of first compound, second compound 3.16 µM.
Where [6] appears, read: curve of first compound, second compound 10 µM.
Setting [7] is: second compound 0.0316 µM, first compound 0.0316 µM.
The mark [8] stands for this setting: second compound 0.0316 µM, first compound 0.1 µM.
Where [9] appears, read: second compound 0.0316 µM, first compound 0.316 µM.
[10] abbreviates: second compound 0.0316 µM, first compound 1 µM.
The mark [11] stands for this setting: second compound 0.0316 µM, first compound 3.16 µM.
Setting [12] is: second compound 0.0316 µM, first compound 10 µM.
Setting [13] is: second compound 0.1 µM, first compound 0.0316 µM.
The mark [14] stands for this setting: second compound 0.1 µM, first compound 0.1 µM.
The mark [15] stands for this setting: second compound 0.1 µM, first compound 0.316 µM.
Setting [16] is: second compound 0.1 µM, first compound 1 µM.
[17] abbreviates: second compound 0.1 µM, first compound 3.16 µM.
Where [18] appears, read: second compound 0.1 µM, first compound 10 µM.
The mark [19] stands for this setting: second compound 0.316 µM, first compound 0.0316 µM.
[20] abbreviates: second compound 0.316 µM, first compound 0.1 µM.
Where [21] appears, read: second compound 0.316 µM, first compound 0.316 µM.
[22] abbreviates: second compound 0.316 µM, first compound 1 µM.
Setting [23] is: second compound 0.316 µM, first compound 3.16 µM.
The mark [24] stands for this setting: second compound 0.316 µM, first compound 10 µM.
Setting [25] is: second compound 1 µM, first compound 0.0316 µM.
Setting [26] is: second compound 1 µM, first compound 0.1 µM.
Where [27] appears, read: second compound 1 µM, first compound 0.316 µM.
The mark [28] stands for this setting: second compound 1 µM, first compound 1 µM.
Setting [29] is: second compound 1 µM, first compound 3.16 µM.
The mark [30] stands for this setting: second compound 1 µM, first compound 10 µM.
Setting [31] is: second compound 3.16 µM, first compound 0.0316 µM.
The mark [32] stands for this setting: second compound 3.16 µM, first compound 0.1 µM.
The mark [33] stands for this setting: second compound 3.16 µM, first compound 0.316 µM.
The mark [34] stands for this setting: second compound 3.16 µM, first compound 1 µM.
Where [35] appears, read: second compound 3.16 µM, first compound 3.16 µM.
Where [36] appears, read: second compound 3.16 µM, first compound 10 µM.
[37] abbreviates: second compound 10 µM, first compound 0.0316 µM.
Setting [38] is: second compound 10 µM, first compound 0.1 µM.
The mark [39] stands for this setting: second compound 10 µM, first compound 0.316 µM.
The mark [40] stands for this setting: second compound 10 µM, first compound 1 µM.
The mark [41] stands for this setting: second compound 10 µM, first compound 3.16 µM.
The mark [42] stands for this setting: second compound 10 µM, first compound 10 µM.

Several values for one entry are separate records, joined by “and”; a condition that tells them apart may be missing. Equal entries are not always repeated. Some results are limits rather than exact numbers.
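Further: spheroids exposed to compounds for seven days.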
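Wherever viability, T/C is given: 100% = DMSO vehicle control viability.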

Usually IC50 stands for the point on the concentration scale where inhibition reaches its midpoint. The term viability, T/C denotes the result in the treated group divided by that in the control group, in per cent. For the compound `COc1ccc([C@@H](O)c2cc(-c3ncnc4cc(N5CCOCC5)ccc34)c(F)cc2Cl)nn1` + Cc1cnc(CNC(=O)c2c(=O)c3ccc(N4CCCN(C)CC4)nc3n3c2sc2ccccc23)cn1, the concentration for half-maximal inhibition (IC50) was 814 nM under setting [1]; 269 nM under setting [2]; 416 nM under setting [3]; 530 nM under setting [4]; 578 nM under setting [5]; below 31.6 nM under setting [6]. Besides, the viability, T/C runs as follows: under setting [7], 104%; under setting [8], 88.2%; under setting [9], 72.3%; under setting [10], 43.9%; under setting [11], 34%; under setting [12], 33.9%. The viability, T/C was 83.5% under setting [13]; 71.3% under setting [14]; 46% under setting [15]; 35.3% under setting [16]; 32.1% under setting [17]; 30.1% under setting [18]. Besides, the viability, T/C by setting is: under setting [19], 70.8%; under setting [20], 66.3%; under setting [21], 49.6%; under setting [22], 42%; under setting [23], 40.1%; under setting [24], 30.8%. Moreover, the viability, T/C by setting is: under setting [25], 68.2%; under setting [26], 59.2%; under setting [27], 55.1%; under setting [28], 43.7%; under setting [29], 39.8%; under setting [30], 28.4%. The viability, T/C is 69% under setting [31]; 54.3% under setting [32]; 61.2% under setting [33]; 41.5% under setting [34]; 39.7% under setting [35]; 27.3% under setting [36]. Moreover, the viability, T/C under setting [37] was 0.28%; the viability, T/C under setting [38] was 0.73%; the viability, T/C under setting [39] is 0.4%; the viability, T/C under setting [40] was 0.39%; the viability, T/C under setting [41] is 0.33%; the viability, T/C under setting [42] was 0.28%.

Turning to `CC1COCCN1c1cc(C2(S(C)(=N)=O)CC2)nc(-c2ccnc3[nH]ccc23)n1` (centres undefined), the viability, T/C (compound 0.0316 µM) was 104% and 101% (2×); the viability, T/C (compound 0.1 µM) was 108% (2×) and 109%; the viability, T/C (compound 0.316 µM) is 106% (2×) and 113%; the viability, T/C (compound 1 µM) was 100% and 96.2% and 104%; the viability, T/C (compound 3.16 µM) was 67.5% and 72.8% and 72.2%; the viability, T/C (compound 10 µM) is 30% and 37.2% and 31.8%. Moreover, under “curve of compound”, the IC50 was 5410 nM and 6580 nM and 5950 nM.

As for `COc1ncnc(C2CC2)c1-c1ncc2cnn(Cc3ccc(-c4nc(C(F)(F)F)cn4C(C)C)cc3)c2n1`, the viability, T/C by setting is: (compound 0.0316 µM) 93.7% and 116% and 113%; (compound 0.1 µM) 103% (2×) and 110%; (compound 0.316 µM) 94.6% and 105% and 101%; (compound 1 µM) 94.7% and 98.2% and 94.5%; (compound 3.16 µM) 114% and 109% and 97.9%; (compound 10 µM) 99.9% and 102% (2×). Besides, under “curve of compound”, the IC50 is above 10000 nM.

With `COc1cc(C2c3cc4c(cc3C(OC3OC5COC(C)OC5C(O)C3O)C3COC(=O)C23)OCO4)cc(OC)c1O` (centres undefined) + Cc1cnc(CNC(=O)c2c(=O)c3ccc(N4CCCN(C)CC4)nc3n3c2sc2ccccc23)cn1, the IC50 reads like this: under setting [1], 644 nM; under setting [2], 507 nM; under setting [3], 469 nM; under setting [4], 1060 nM; under setting [5], 1800 nM; under setting [6], below 31.6 nM. Also, the viability, T/C is, setting by setting: under setting [7], 100%; under setting [8], 80.6%; under setting [9], 70.7%; under setting [10], 39.3%; under setting [11], 17.8%; under setting [12], 12.4%. Also, the viability, T/C reads like this: under setting [13], 85%; under setting [14], 73.7%; under setting [15], 59.2%; under setting [16], 35%; under setting [17], 28.6%; under setting [18], 12%. The viability, T/C by setting is: under setting [19], 75.6%; under setting [20], 73.9%; under setting [21], 53%; under setting [22], 38%; under setting [23], 29.4%; under setting [24], 16.7%. In addition, the viability, T/C is 67.8% under setting [25]; 61.8% under setting [26]; 55.9% under setting [27]; 51.5% under setting [28]; 40.5% under setting [29]; 21.9% under setting [30]. In addition, the viability, T/C is, setting by setting: under setting [31], 66.9%; under setting [32], 68.4%; under setting [33], 58.3%; under setting [34], 53.7%; under setting [35], 47.5%; under setting [36], 31.3%. Further, the viability, T/C was 16.2% under setting [37]; 17.1% under setting [38]; 58.4% under setting [39]; 49.7% under setting [40]; 29.3% under setting [41]; 0.59% under setting [42].

As for `Cc1[nH]c2ccc(F)cc2c1-c1nc2c3cccnc3c3ncccc3c2[nH]1`, the viability, T/C reads like this: (compound 0.0316 µM) 106% [middle of 12 runs]; (compound 0.1 µM) 110% [middle of 12 runs]; (compound 0.316 µM) 106% [middle of 12 runs]; (compound 1 µM) 105% [middle of 12 runs]; (compound 3.16 µM) 100% [middle of 12 runs]; (compound 10 µM) 88.5% [middle of 12 runs]. Moreover, the IC50 runs as follows: (compound alone, run of 04/16/2024) above 10000 nM; (compound alone, run of 04/22/2024) above 10000 nM.

Consider `C=CCn1c(=O)c2cnc(Nc3ccc(N4CCN(C)CC4)cc3)nc2n1-c1cccc(C(C)(C)O)n1`, for which the viability, T/C was 108% (2×) and 104% (compound 0.0316 µM); 104% and 86.2% and 90.6% (compound 0.1 µM); 54.8% and 68.5% and 59.1% (compound 0.316 µM); 17.5% and 15.8% and 14.5% (compound 1 µM); 7.41% and 7.71% and 9.27% (compound 3.16 µM); 9.65% and 8.23% and 9.05% (compound 10 µM). In addition, the IC50 (curve of compound) is 373 nM and 456 nM and 387 nM.

For `O=C(NO)c1cnc(N2CCN(S(=O)(=O)c3ccc4ccccc4c3)CC2)nc1`, the viability, T/C reads like this: (compound 0.0316 µM) 107% and 108% and 101%; (compound 0.1 µM) 78.2% and 86.9% and 86.3%; (compound 0.316 µM) 27.8% and 30.5% and 22.7%; (compound 1 µM) 1.65% and 3.03% and 1.16%; (compound 3.16 µM) 0.25% and 0.22% and 0.12%; (compound 10 µM) 0.25% and 0.95% and 0.29%. For the same compound, where the note is “curve of compound”, the IC50 is 189 nM and 212 nM and 193 nM.

On to `CC1COCCN1c1cc(-c2ccnn2C)c2ccnc(-c3ccn[nH]3)c2n1` (centres undefined), for which the viability, T/C runs as follows: (compound 0.0316 µM) 93.7% and 96.6% and 80.7%; (compound 0.1 µM) 60.6% and 68% and 55.6%; (compound 0.316 µM) 29.6% and 31.4% and 26.2%; (compound 1 µM) 26.3% and 24% and 18.6%; (compound 3.16 µM) 26.5% and 25.6% and 19.4%; (compound 10 µM) 24.5% and 24% and 22.7%. Moreover, the IC50 (curve of compound) was 148 nM and 176 nM and 124 nM.

As to `COc1ccc([C@@H](O)c2cc(-c3ncnc4cc(N5CCOCC5)ccc34)c(F)cc2Cl)nn1`, the viability, T/C is, setting by setting: (compound 0.0316 µM) 110% and 102% and 111%; (compound 0.1 µM) 94.2% and 93% and 93.8%; (compound 0.316 µM) 103% and 91.3% and 98.6%; (compound 1 µM) 89% and 93.2% and 84%; (compound 3.16 µM) 76.2% and 71.4% and 65%; (compound 10 µM) 50.3% and 57.7% and 45.4%. Also, the IC50 (curve of compound) was > 10000 nM and 7770 nM.

Values taken from PubChem BioAssay AID2060508 (Molecular Pharmacology Branch, DTP, NCI, 2025).
